From patent US11180483B2, “Substituted reverse pyrimidine Bmi-1 inhibitors” (PTC Therapeutics, Inc., priority 2012, dated 2021)

Legend:
Bmi-1 = experiment: Sandwich ELISA Assay (Bmi-1 ELISA) in HT-1080 cells; type: cell-based
Procedure, shortened: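 Bmi-1 in lysates was measured by a three-antibody ELISA with TMB, OD450 minus OD570 reference, interpolated on a GST-tagged recombinant Bmi-1 standard curve, 0-8000 pg/mL. Lysates came from HT-1080 cells treated 40-48 h with compound, final DMSO 0.5%.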

| EC50 (Bmi-1) [µM] | melting point [°C] | Structure (SMILES) |
| --- | --- | --- |
| 0.01 to 0.1 | 183 to 185 | Cc1nc2ccc(F)cc2n1-c1nc(N)cc(Nc2ccc(Cl)cc2)n1 [Cpd 263, N-(4-chlorophenyl)-2-(6-fluoro-2-methyl-1H-benzimidazol-1-yl)pyrimidine-4,6-diamine] |
| 0.01 to 0.1 | 156 to 158 | CCc1nc2ccc(F)cc2n1-c1nc(N)cc(Nc2ccc(OC(F)F)c(F)c2)n1 [Cpd 77, N-[4-(difluoromethoxy)-3-fluorophenyl]-2-(2-ethyl-6-fluoro-1H-benzimidazol-1-yl)pyrimidine-4,6-diamine] |
| 0.1 to 3 | 225 to 227 | Cc1nc2ccc(F)cc2n1-c1nc(N)cc(Nc2ccc(Cl)c(F)c2)n1 [Cpd 267, N-(4-chloro-3-fluorophenyl)-2-(6-fluoro-2-methyl-1H-benzimidazol-1-yl)pyrimidine-4,6-diamine] |
| 0.001 to 0.01 | 114 to 115 | Nc1cc(Nc2ccc(OC(F)F)cc2)nc(-n2c(C(F)F)nc3ccc(F)cc32)n1 [Cpd 145, N-[4-(difluoromethoxy)phenyl]-2-[2-(difluoromethyl)-6-fluoro-1H-benzimidazol-1-yl]pyrimidine-4,6-diamine] |
| 0.1 to 3 | 150 to 152 | CCc1nn2ccc(F)cc2c1-c1nc(N)c(F)c(Nc2ccc(OC(F)F)c(F)c2)n1 [Cpd 188, N-[4-(difluoromethoxy)-3-fluorophenyl]-2-(2-ethyl-5-fluoropyrazolo[1,5-a]pyridin-3-yl)-5-fluoropyrimidine-4,6-diamine] |
| 0.1 to 3 | 140 to 141 | Cc1cn2c(-c3nc(N)c(F)c(Nc4ccc(OC(F)F)c(F)c4)n3)c(C)nc2c(C)n1 [Cpd 176, N-[4-(difluoromethoxy)-3-fluorophenyl]-5-fluoro-2-(2,6,8-trimethylimidazo[1,2-a]pyrazin-3-yl)pyrimidine-4,6-diamine] |
| 0.1 to 3 | 226 to 229 | Cc1nc2ccc(F)cn2c1-c1nc(N)c(F)c(Nc2ccc(Cl)cc2)n1 [Cpd 251, N-(4-chlorophenyl)-5-fluoro-2-(6-fluoro-2-methylimidazo[1,2-a]pyridin-3-yl)pyrimidine-4,6-diamine] |
| 0.1 to 3 | 141 to 143 | Cc1cn2c(-c3nc(N)c(F)c(Nc4ccc(OC(F)F)cc4)n3)c(C)nc2c(C)n1 [Cpd 175, N-[4-(difluoromethoxy)phenyl]-5-fluoro-2-(2,6,8-trimethylimidazo[1,2-a]pyrazin-3-yl)pyrimidine-4,6-diamine] |
| 0.01 to 0.1 | 212 to 213 | COCc1nc2ccccc2n1-c1nc(N)cc(Nc2ccc(C(F)(F)F)cc2)n1 [Cpd 150, 2-[2-(methoxymethyl)-1H-benzimidazol-1-yl]-N-[4-(trifluoromethyl]phenyl]pyrimidine-4,6-diamine] |
| 0.1 to 3 | 270 to 271 | Cc1nn(C)c(C)c1-c1nc(N)cc(Nc2ccc(C(F)(F)F)cc2)n1 [Cpd 70, N-[4-(trifluoromethyl)phenyl]-2-(1,3,5-trimethyl-1H-pyrazol-4-yl)pyrimidine-4,6-diamine] |
| 0.1 to 3 | 256 to 258 | Cc1nc2ncc(F)cn2c1-c1nc(N)cc(Nc2ccc(C(F)(F)F)cc2)n1 [Cpd 100, 2-(6-fluoro-2-methylimidazo[1,2-a]pyrimidin-3-yl)-N-[4-(trifluoromethyl)phenyl]pyrimidine-4,6-diamine] |
| 0.1 to 3 | 199 to 202 | Nc1cc(Nc2ccc(OC(F)(F)F)cc2)nc(-c2c(C(F)(F)F)nc3ccccn23)n1 [Cpd 67, N-[4-(trifluoromethoxy)phenyl]-2-[2-(trifluoromethyl]imidazo[1,2-a]pyridin-3-yl]pyrimidine-4,6-diamine] |
| 0.1 to 3 | 164 to 166 | CCc1nn2ccc(F)cc2c1-c1nc(N)c(F)c(Nc2ccc(C(F)(F)F)cc2)n1 [Cpd 187, 2-(2-ethyl-5-fluoropyrazolo[1,5-a]pyridin-3-yl)-5-fluoro-N-[4-(trifluoromethyl)phenyl]pyrimidine-4,6-diamine] |
| 0.01 to 0.1 | 182 to 183 | Cc1nc2ccc(F)cc2n1-c1nc(N)cc(Nc2ccc(OC(F)F)c(F)c2)n1 [Cpd 76, N-[4-(difluoromethoxy)-3-fluorophenyl]-2-(6-fluoro-2-methyl-1H-benzimidazol-1-yl)pyrimidine-4,6-diamine] |
| 0.1 to 3 | 166 to 168 | Cc1cn2c(-c3nc(N)c(F)c(Nc4ccc(C(F)(F)F)cc4)n3)c(C)nc2c(C)n1 [Cpd 174, 5-fluoro-N-[4-(trifluoromethyl)phenyl]-2-(2,6,8-trimethylimidazo[1,2-a]pyrazin-3-yl)pyrimidine-4,6-diamine] |
| 0.001 to 0.01 |  | Cc1nc2ccccc2n1-c1nc(N)c(F)c(Nc2ccc3c(c2)OCO3)n1 [Cpd 203, N-(1,3-benzodioxol-5-yl)-5-fluoro-2-(2-methyl-1H-benzimidazol-1-yl)pyrimidine-4,6-diamine] |
| 0.01 to 0.1 |  | Nc1nc(-c2c(CO)nn3ccc(F)cc23)nc(Nc2ccc(OC(F)F)cc2)c1F [Cpd 181, [3-(4-amino-6-{[4-(difluoromethoxy)phenyl]amino}-5-fluoropyrimidin-2-yl)-5-fluoropyrazolo[1,5-a]pyridin-2-yl]methanol] |
| 0.01 to 0.1 |  | Nc1nc(-n2c(C3CC3)nc3ncc(F)cc32)nc(Nc2ccc(OC(F)F)cc2)c1F [Cpd 155, 2-(2-cyclopropyl-6-fluoro-1H-imidazo[4,5-b]pyridin-1-yl)-N-[4-(difluoromethoxy)phenyl]-5-fluoropyrimidine-4,6-diamine] |

| EC50 (Bmi-1) [µM] | melting point [°C] | Structure (SMILES) |
| --- | --- | --- |
| 0.1 to 3 |  | COc1ccc(Nc2ccnc(-c3c(C(F)(F)F)nc4ccccn34)n2)cn1 [Cpd 30, N-(6-methoxypyridin-3-yl)-2-[2-(trifluoromethyl)imidazo[1,2-a]pyridin-3-yl]pyrimidin-4-amine] |
| 0.01 to 0.1 |  | Cc1nc2cc(F)ccc2n1-c1nc(N)c(F)c(Nc2ccc(OC(F)F)cc2)n1 [Cpd 113, N-[4-(difluoromethoxy)phenyl]-5-fluoro-2-(5-fluoro-2-methyl-1H-benzimidazol-1-yl)pyrimidine-4,6-diamine] |
| 0.01 to 0.1 |  | Cc1ccc(Nc2nc(-n3c(C)nc4c(F)cc(F)cc43)nc(N)c2F)cc1 [Cpd 241, 2-(4,6-difluoro-2-methyl-1H-benzimidazol-1-yl)-5-fluoro-N-(4-methylphenyl)pyrimidine-4,6-diamine] |
| 0.01 to 0.1 |  | Cc1nc2ccccc2n1-c1nc(N)c(F)c(Nc2ccc(Cl)c(F)c2)n1 [Cpd 261, N-(4-chloro-3-fluorophenyl)-5-fluoro-2-(2-methyl-1H-benzimidazol-1-yl)pyrimidine-4,6-diamine] |
| 0.01 to 0.1 |  | CCc1nc2ccccc2n1-c1nc(N)c(Cl)c(Nc2ccc(C(F)(F)F)cc2)n1 [Cpd 167, 5-chloro-2-(2-ethyl-1H-benzimidazol-1-yl)-N-[4-(trifluoromethyl)phenyl]pyrimidine-4,6-diamine] |
| 0.1 to 3 |  | Cc1nc2ccccc2n1-c1nc(N)c(Cl)c(Nc2ccc(C(F)(F)F)cc2)n1 [Cpd 166, 5-chloro-2-(2-methyl-1H-benzimidazol-1-yl)-N-[4-(trifluoromethyl)phenyl]pyrimidine-4,6-diamine] |
| 0.001 to 0.01 |  | COc1ccc(Nc2ccnc(-c3c(C(F)(F)F)nc4ccccn34)n2)cc1F [Cpd 34, N-(3-fluoro-4-methoxyphenyl)-2-[2-(trifluoromethyl)imidazo[1,2-a]pyridin-3-yl]pyrimidin-4-amine] |
| 0.01 to 0.1 |  | Nc1nc(-n2c(C3CC3)nc3ncc(F)cc32)nc(Nc2ccc(C(F)(F)F)cc2)c1F [Cpd 117, 2-(2-cyclopropyl-6-fluoro-1H-imidazo[4,5-b]pyridin-1-yl)-5-fluoro-N-[4-(trifluoromethyl)phenyl]pyrimidine-4,6-diamine] |
| 0.01 to 0.1 |  | Cc1nc2ccc(N)cc2n1-c1nc(N)c(F)c(Nc2ccc(OC(F)F)cc2)n1 [Cpd 257, 2-(6-amino-2-methyl-1H-benzimidazol-1-yl)-N-[4-(difluoromethoxy)phenyl]-5-fluoropyrimidine-4,6-diamine] |
| 0.1 to 3 |  | Cc1nc2ccccc2n1-c1nc(N)cc(Nc2ccc(OC(F)(F)F)cc2)n1 [Cpd 221, 2-(2-methyl-1H-benzimidazol-1-yl)-N-[4-(trifluoromethoxy)phenyl]pyrimidine-4,6-diamine] |
| 0.01 to 0.1 |  | Nc1nc(-n2c(C3CC3)nc3ccccc32)nc(Nc2ccc(C(F)(F)F)cc2)c1F [Cpd 120, 2-(2-cyclopropyl-1H-benzimidazol-1-yl)-5-fluoro-N-[4-(trifluoromethyl)phenyl]pyrimidine-4,6-diamine] |
| 0.1 to 3 |  | COc1cccc(Nc2nc(-n3c(C)nc4ccccc43)nc(N)c2F)c1 [Cpd 195, 5-fluoro-N-(3-methoxyphenyl)-2-(2-methyl-1H-benzimidazol-1-yl)pyrimidine-4,6-diamine] |
| 0.1 to 3 |  | Fc1ccc2nc(-c3ccccc3)c(-c3nccc(Nc4ccc(Br)cc4)n3)n2c1 [Cpd 26, N-(4-bromophenyl)-2-(6-fluoro-2-phenylimidazo[1,2-a]pyridin-3-yl)pyrimidin-4-amine] |
| 0.1 to 3 |  | Cc1nc2ccccc2n1-c1nc(N)cc(Nc2ccc([N+](=O)[O-])cc2)n1 [Cpd 211, 2-(2-methyl-1H-benzimidazol-1-yl)-N-(4-nitrophenyl)pyrimidine-4,6-diamine] |
| 0.1 to 3 |  | Cc1nc2ccc(F)cc2n1-c1nc(N)c(F)c(Nc2ccc(C#N)cc2)n1 [Cpd 192, 4-{[6-amino-5-fluoro-2-(6-fluoro-2-methyl-1H-benzimidazol-1-yl)pyrimidin-4-yl]amino}benzonitrile] |
| 0.1 to 3 |  | Cc1nc2ccccc2n1-c1nc(NCCO)cc(Nc2ccc(C(F)(F)F)cc2)n1 [Cpd 57, 2-{[2-(2-methyl-1H-benzimidazol-1-yl)-6-{[4-(trifluoromethyl)phenyl]amino}pyrimidin-4-yl]amino}ethanol] |
| 0.01 to 0.1 |  | Nc1nc(-n2c(C3CC3)nc3ccccc32)nc(Nc2ccc(Cl)cc2)c1F [Cpd 279, N-(4-chlorophenyl)-2-(2-cyclopropyl-1H-benzimidazol-1-yl)-5-fluoropyrimidine-4,6-diamine] |
